Data on 30 compounds can be found in patent publication US10450314B2, “Pteridine derivatives as modulators of ROR gamma” (Boehringer Ingelheim International GmbH, priority 2015, dated 2019).

The nature of series [1]: Human liver microsome (HLM) metabolic stability assay. The series is classed as in vitro ADME. As to conditions: human liver microsomes, 1 uM compound, 37° C., 60 min; % hepatic blood flow. The protocol:
Assessment of Metabolic Stability
The 5 time point, high-throughput human liver microsome (HLM) metabolic stability assay is designed to determine in vitro compound metabolism. Compounds are incubated with HLMs at a concentration of 1 uM, at 37° C., for a total of 60 min. The percent of compound remaining at 5, 15, 30, and 60 min is used to calculate the t1/2 (min), CLint (mL/min/kg), CLh (mL/min/kg), and % Qh. The assay is based on a 96-well format and can accommodate up to 92 compounds per plate (n=1).
Using the 96-well multi-channel head, the Biomek FX, equipped with a Peltier heating block/shaker, is programmed to accomplish the following steps: • 1. Pipette 175 uL of 1.15 mg/mL microsomes into each of the 96 conical inserts (Analytical Sales and Products, catalog number 96PL05) that fit into the plate of the Peltier heating block/shaker (the incubation plate) • 2. Add 5 uL of compounds from the assay plate to the microsomes and shake the mixture at 600 rpm at 42.1° C. for 10 min (a setting of 42.1° C. on the Peltier is required for the samples to incubate at 37° C.) • 3. After 10 min, prompt the user to add the NADPH plate to the deck and add 20 uL from the NADPH plate to the incubation plate to start the reaction • 4. Add 215 uL of 100%, cold acetonitrile containing an internal standard(s) to a 0 minute, 5 minute, 15 minute, 30 minute, and 60 minute “quench” plate • 5. At 0 min, 5 min, 15 min, 30 min, and 60 min into the incubation, aspirate 12 uL from the incubation mixture and add it to the quench solution to stop the reaction • 6. Add 185 uL HPLC grade water to each well of the 0, 5, 15, 30 and 60 minute quench plates to dilute compounds to the appropriate concentration for the mass spectrometer
After all time points are collected, the quench plates are sealed with 96-well pierceable plate mats or heat sealing foil and centrifuged at 3000 rpm for 15 min to pellet the microsomes.
The plates are analyzed using LC/MS/MS with electron spray ionization (ESI) and the previously determined MRM transitions. The LC method includes the following parameters:
Using an Excel template in Activitybase, the peak areas corresponding to 5, 15, 30 and 60 min are compared to the peak area at 0 min to calculate the percent of remaining compound using the following equation:
Percent compound remaining=(AUC at Time t min/AUC at Time 0 min)×100 where t=0, 5, 15, 30 or 60 min.
Time (min) is plotted against the natural logarithm (Ln) of the percent compound remaining to determine the slope. The slope is used to calculate t1/2 (min) using the equation, t1/2=0.693/slope.
Clint, Intrinsic Clearance

For series [2], the target named is T1, RORγ (Homo sapiens, UniProt P51449).
T1 construct: expressed in transfected cells; host or cells: HEK 293 cells, transiently cotransfected with pGL4.3 luc2P/GAL4UAS/Hygro reporter
T1 sequence (P51449 269-508 limits assumed): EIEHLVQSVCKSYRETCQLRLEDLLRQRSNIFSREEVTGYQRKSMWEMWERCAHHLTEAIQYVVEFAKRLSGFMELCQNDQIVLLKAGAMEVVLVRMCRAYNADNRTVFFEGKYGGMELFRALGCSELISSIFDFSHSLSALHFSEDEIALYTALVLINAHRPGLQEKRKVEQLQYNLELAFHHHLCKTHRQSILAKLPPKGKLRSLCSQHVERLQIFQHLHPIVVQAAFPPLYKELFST
The experiment in a line: RORγ Reporter Gene Assay (RGA), luciferase transactivation in transiently transfected HEK 293 cells. The class given is cell-based. As to conditions: HEK 293 cells cotransfected with pGL4.3 luc2P/GAL4UAS and pBIND Gal4DBD hRORC LBD; 20-24 h incubation. The protocol: Reporter Gene Assay (RGA)
A nuclear receptor transactivation assay is performed to quantitate the ability of test compounds to inhibit RORγ transactivation of a luciferase reporter. A similar assay is described in: Khan et al., Bioorganic & Medicinal Chemistry Letters 23 (2013), 532-536. The system uses transiently transfected HEK 293 cells cotransfected with two plasmids (pGL4.3, luc2P/GAL4UAS/Hygro, and pBIND, Gal4DBD hRORC LBD1-3). The positive control is co-transiently transfected with both plasmids, and the negative control contains the pGL4.3 promoter sequence. Assays are assembled in 384 well plates where transiently transfected cells and test compound at varying concentrations are incubated for 20-24 h. The next day, assays plates are taken out and equilibrated at RT for 20-30 minutes. Bright-Glo™ Luciferase Assay System is used to detect Luciferase production. After addition of Bright GLO detection reagent, the plates are incubated at RT for 20 minutes. The plates are read on an Envision plate reader to measure luminescence signal. The RLU signal is converted to POC relative to control and blank wells.
Compound Dilution Buffer:
Bright Glo Luciferase Assay System: Promega #E2620
Thaw lysis buffer provided in kit, add 100 mL lysis buffer to substrate powder.

Consider `CC[C@@H](C)n1c(=O)c(NCc2ccc(S(C)(=O)=O)cn2)nc2c(CF)nc(-c3c(C)ncnc3C3CC3)nc21` [Example 54], for which the “HLM (% Qh)” value in series [1] was 41 % Qh. The same compound yielded an IC50 in series [2] of 0.225 µM. Take `Cc1ncnc(C2CC2)c1-c1nc(C)c2nc(NCc3ccc(S(N)(=O)=O)nc3)c(=O)n([C@@H](C)C(F)(F)F)c2n1` [Example 98]: in series [1], the “HLM (% Qh)” value is listed as below 24 % Qh. The same compound gave a 50% inhibitory concentration (IC50) in series [2] of 1.1 µM. In the same order, the values of `CCS(=N)(=O)c1ccc(CNc2nc3c(C)nc(-c4c(C)ncnc4C4CC4)nc3n([C@@H](C)C3CC3)c2=O)nc1` (single isomer, unassigned) [Example 42b] are below 24 % Qh and 0.39 µM. `Cc1ncnc(C2CC2)c1-c1nc(C)c2nc(NCc3ccc(S(C)(=O)=O)nc3)c(=O)n([C@@H](C)C3CC3)c2n1` [Example 7]: in series [1], the “HLM (% Qh)” value was found to be 33 % Qh. This compound displayed a half-maximal inhibitory concentration (IC50) in series [2] of 0.07 µM.

As for `COc1ncnc(C2CC2)c1-c1nc(C)c2nc(NCc3ccc(S(C)(=O)=O)nc3)c(=O)n([C@@H](C)C(F)(F)F)c2n1` [Example 19], in series [1], the “HLM (% Qh)” value was 62 % Qh. The compound further had an IC50 in series [2] of 0.165 µM.

For the compound `COc1ncnc(C2CC2)c1-c1nc(C)c2nc(NCc3ccc(S(N)(=O)=O)cn3)c(=O)n([C@@H](C)C3CC3)c2n1` [Example 62], the “HLM (% Qh)” value in series [1] was found to be 27 % Qh. The compound further gave an IC50 in series [2] of 0.125 µM. On the same counts, the results for `COc1ncnc(C2CC2)c1-c1nc(C)c2nc(NCc3ccc(S(C)(=N)=O)cc3)c(=O)n([C@@H](C)C(F)(F)F)c2n1` (single isomer, unassigned) [Example 99a] are 41 % Qh and 0.23 µM.

As to `CCS(=O)(=O)c1ccc(CNc2nc3c(C)nc(-c4c(C)ncnc4C4CC4)nc3n([C@@H](C)CF)c2=O)cn1` [Example 50], the “HLM (% Qh)” value in series [1] is below 24 % Qh. In series [2], this compound showed an IC50 of 2.7 µM. On the same counts, the results for `CC[C@H](C)n1c(=O)c(NCc2ccc(S(C)(=N)=O)cc2)nc2c(C)nc(-c3c(C)ncnc3C3CC3)nc21` (some centres unmarked) [Example 84] are 33 % Qh and 0.195 µM.

Take `CCS(=O)(=O)c1ccc(CNc2nc3c(C)nc(-c4c(C)ncnc4C4CC4)nc3n([C@@H](C)C3CC3)c2=O)nc1` [Example 68]: in series [1], the “HLM (% Qh)” value is below 24 % Qh. In the case of `COc1ncnc(C2CC2)c1-c1nc(C)c2nc(NCc3ccc(S(N)(=O)=O)cn3)c(=O)n([C@@H](C)C(F)(F)F)c2n1` [Example 95], the “HLM (% Qh)” value in series [1] was 40 % Qh. The IC50 in series [2] was found to be 0.15 µM.

Turning to `CCS(=O)(=O)c1cnc(CNc2nc3c(C)nc(-c4c(C)ncnc4C4CC4)nc3n([C@@H](C)C(F)(F)F)c2=O)nc1` [Example 23], the “HLM (% Qh)” value in series [1] was below 24 % Qh. This compound also yielded a concentration for half-maximal inhibition (IC50) in series [2] of 0.178 µM. In the same order, the values of `Cc1ncnc(C2CC2)c1-c1nc(C)c2nc(NCc3ccc(S(C)(=O)=O)cn3)c(=O)n([C@@H](C)C3CC3)c2n1` [Example 9] are below 24 % Qh and 0.07 µM.

With `CCS(=O)(=O)c1cnc(CNc2nc3c(C)nc(-c4c(C)ncnc4C4CC4)nc3n([C@H](C)C(F)F)c2=O)nc1` [Example 93], the “HLM (% Qh)” value in series [1] is on record as below 24 % Qh. Besides, half-maximal inhibition in series [2] (IC50) required 0.185 µM.

For the compound `CCS(=N)(=O)c1ccc(CNc2nc3c(C)nc(-c4c(C)ncnc4C4CC4)nc3n([C@@H](C)C(F)(F)F)c2=O)nc1` (single isomer, unassigned) [Example 102a], the “HLM (% Qh)” value in series [1] is below 24 % Qh. Also, in series [2], the IC50 was found to be 0.535 µM. On the same counts, the results for `COc1ncnc(C2CC2)c1-c1nc(C)c2nc(NCc3ccc(S(N)(=O)=O)cn3)c(=O)n(CC(C)C)c2n1` [Example 70] are below 24 % Qh and 1.3 µM. As to `CC[C@@H](C)n1c(=O)c(NCc2ncc(S(=O)(=O)CC)cn2)nc2c(C)nc(-c3c(OC)ncnc3C3CC3)nc21` [Example 4], in series [1], the “HLM (% Qh)” value is below 24 % Qh. Also, half-maximal inhibition in series [2] (IC50) required 0.18 µM. On the same counts, the results for `CCS(=O)(=O)c1ccc(CNc2nc3c(C)nc(-c4c(OC)ncnc4C4CC4)nc3n([C@@H](C)C(F)(F)F)c2=O)nc1` [Example 88] are 38 % Qh and 0.102 µM.

For `COc1ncnc(C2CC2)c1-c1nc(C)c2nc(NCc3ccc(S(C)(=O)=O)nc3)c(=O)n([C@@H](C)C3CC3)c2n1` [Example 8], the “HLM (% Qh)” value in series [1] is given as below 24 % Qh. In series [2], the IC50 was 0.075 µM. For `CC[C@@H](C)n1c(=O)c(NCc2ccc(S(C)(=O)=O)cn2)nc2c(C)nc(-c3c(C)ncnc3C3CC3)nc21` [Example 73], in series [1], the “HLM (% Qh)” value is on record as below 24 % Qh. The compound further returned an IC50 in series [2] of 0.155 µM.

For the compound `CCS(=O)(=O)c1ccc(CNc2nc3c(C)nc(-c4c(OC)ncnc4C4CC4)nc3n(C(C)C)c2=O)nc1` [Example 77], the “HLM (% Qh)” value in series [1] is on record as below 24 % Qh. The compound also gave an IC50 in series [2] of 0.68 µM.

Regarding `CC[C@H](C)n1c(=O)c(NCc2ccc(S(C)(=N)=O)cc2)nc2c(C)nc(-c3c(OC)ncnc3C3CC3)nc21` (some centres unmarked) [Example 83], the “HLM (% Qh)” value in series [1] is 32 % Qh. In addition, the half-maximal inhibitory concentration (IC50) in series [2] turned out to be 0.25 µM. On the same counts, the results for `CC[C@H](C)n1c(=O)c(NCc2ccc(S(=O)(=O)CC)nc2)nc2c(C)nc(-c3c(C)ncnc3C3CC3)nc21` [Example 64] are below 24 % Qh and 0.095 µM. On the same counts, the results for `CCS(=O)(=O)c1cnc(CNc2nc3c(C)nc(-c4c(OC)ncnc4C4CC4)nc3n([C@@H](C)C3CC3)c2=O)nc1` [Example 10] are 27 % Qh and 0.097 µM. In the same order, the values of `CCS(=O)(=O)c1cnc(CNc2nc3c(C)nc(-c4c(C)ncnc4C4CC4)nc3n([C@@H](C)C3CC3)c2=O)nc1` [Example 6] are below 24 % Qh and 0.087 µM. As for `Cc1ncnc(C2CC2)c1-c1nc(C)c2nc(NCc3ccc(S(C)(=N)=O)cc3)c(=O)n([C@@H](C)C3CC3)c2n1` (single isomer, unassigned) [Example 27a], the “HLM (% Qh)” value in series [1] is on record as below 24 % Qh. In series [2], this compound displayed an IC50 of 0.21 µM. In the same order, the values of `COc1ncnc(C2CC2)c1-c1nc(C)c2nc(NCc3ccc(S(C)(=O)=O)cn3)c(=O)n([C@@H](C)C(F)(F)F)c2n1` [Example 17] are 39 % Qh and 0.13 µM.

`Cc1ncnc(C2CC2)c1-c1nc(C)c2nc(NCc3ccc(S(C)(=O)=O)nc3)c(=O)n([C@@H](C)C(F)(F)F)c2n1` [Example 20]: in series [1], the “HLM (% Qh)” value was determined as 29 % Qh. In series [2], this compound returned an IC50 of 0.175 µM. On the same counts, the results for `CCS(=N)(=O)c1ccc(CNc2nc3c(C)nc(-c4c(C)ncnc4C4CC4)nc3n([C@@H](C)C(F)(F)F)c2=O)nc1` (single isomer, unassigned) [Example 102b] are below 24 % Qh and 0.64 µM.

With `CC[C@@H](C)n1c(=O)c(NCc2ccc(S(=N)(=O)CC)cc2)nc2c(C)nc(-c3c(C)ncnc3C3CC3)nc21` (single isomer, unassigned) [Example 26b], the “HLM (% Qh)” value in series [1] came out at 25 % Qh. In series [2], the IC50 was determined as 0.17 µM.

One may read the IC50 as the concentration needed to halve the response being measured. High values mean weaker potency in that assay, low ones greater potency in that assay.
